Where a name gives a salt, the structure may show the parent alone. Read-outs that look alike come from different tables or passages of the source.
Assays:
[1] = test system: six MCC cell lines and four control cell lines; assay: qHTS cell viability, all 10 cell lines screened; format: cell-based
[2] = test system: VN-MCC cell lines (MCC13, MCC26, UISO); assay: qHTS cell viability, VN-MCC cell lines as a group (mean AUC, VN.MCC.avg); format: cell-based, human
MKL-1 cells (VP-MCC) = assay: qHTS cell viability (CellTiter-Glo, 72 h; primary and follow-up small molecule screen); format: cell-based, human
[3] = test system: MCC cell lines (WAGA, MKL-1, MKL-2, MCC13, MCC26, UISO); assay: qHTS cell viability, all six MCC cell lines as a group (mean AUC, MCC.avg); format: cell-based, human
CRL-7250 cells = assay: qHTS cell viability (CellTiter-Glo, 72 h; primary screen), control cell line; format: cell-based
MCC26 cells (VN-MCC) = assay: qHTS cell viability (CellTiter-Glo, 72 h; primary and follow-up small molecule screen); format: cell-based, human
HACAT cells = assay: qHTS cell viability (CellTiter-Glo, 72 h; primary screen), control cell line; format: cell-based, human
UISO cells (VN-MCC) = assay: qHTS cell viability (CellTiter-Glo, 72 h; primary and follow-up small molecule screen); format: cell-based, human
[4] = test system: VP-MCC cell lines (WAGA, MKL-1, MKL-2); assay: qHTS cell viability, VP-MCC cell lines as a group (mean AUC, VP.MCC.avg); format: cell-based, human
HEK293T cells = assay: qHTS cell viability (CellTiter-Glo, 72 h; primary screen), control cell line; format: cell-based, human
[5] = test system: control cell lines (HACAT, HEK293T, CRL-7250, NIH-3T3); assay: qHTS cell viability, control cell lines as a group (mean AUC, Control.avg); format: cell-based
NIH-3T3 cells = assay: qHTS cell viability (CellTiter-Glo, 72 h; primary screen), control cell line; format: cell-based, mouse
MKL-2 cells (VP-MCC) = assay: qHTS cell viability (CellTiter-Glo, 72 h; primary and follow-up small molecule screen); format: cell-based, human
MCC13 cells (VN-MCC) = assay: as above; format: cell-based, human
WAGA cells (VP-MCC) = assay: as above; format: cell-based, human
[6] = NPC library, therapeutic window: Control avg AUC minus MCC avg AUC
[7] = NPC library, mean AUC of VN-MCC cell lines
[8] = NPC library, therapeutic window: Control avg AUC minus VN-MCC avg AUC
[9] = NPC library, qHTS dose-response AUC, MKL1
[10] = NPC library, mean AUC of six MCC cell lines
[11] = NPC library, qHTS dose-response AUC, CRL7250 control
[12] = NPC library, qHTS dose-response AUC, MCC26
[13] = NPC library, qHTS dose-response AUC, HACAT control
[14] = NPC library, qHTS dose-response AUC, UISO
[15] = NPC library, mean AUC of VP-MCC cell lines
[16] = NPC library, therapeutic window: Control avg AUC minus VP-MCC avg AUC
[17] = NPC library, qHTS dose-response AUC, HEK293T control
[18] = NPC library, mean AUC of control cell lines
[19] = NPC library, qHTS dose-response AUC, NIH3T3 control
[20] = NPC library, qHTS dose-response AUC, MKL2
[21] = NPC library, qHTS dose-response AUC, MCC13
[22] = NPC library, qHTS dose-response AUC, WAGA
[23] = MIPE library, 11-point DRC, sheet S2E
[24] = MIPE library, 11-point DRC, control cell line, sheet S2E

`N[C@@H](Cc1ccc(N(CCCl)CCCl)cc1)C(=O)O` [Melphalan] gave a Control-MCC [1] of 36.0029, a Control-VN-MCC [2] of 9.639 and a VN-MCC_Avg_AUC [2] of 446.303. The MKL1_AUC (MKL-1 cells (VP-MCC)) was 386.049, the MCC_Avg_AUC [3] was 419.939 and the CRL7250_AUC (CRL-7250 cells) was 448.797. The MCC26_AUC (MCC26 cells (VN-MCC)) was 465.715, the HACAT_AUC (HACAT cells) was 448.936 and the UISO_AUC (UISO cells (VN-MCC)) was 405.245. For the same molecule, the Control-VP-MCC [4] was 62.3672, the VP-MCC_Avg_AUC [4] was 393.574 and the HEK293T_AUC (HEK293T cells) was 460.279. For the same molecule, the Control_Avg_AUC [5] was 455.942, the NIH3T3_AUC (NIH-3T3 cells) was 465.754 and the MKL2_AUC (MKL-2 cells (VP-MCC)) was 377.097. It also gave an MCC13_AUC (MCC13 cells (VN-MCC)) of 467.949 and a WAGA_AUC (WAGA cells (VP-MCC)) of 417.577.

`Cc1cc(OCCOCC[N+](C)(C)Cc2ccccc2)ccc1C(C)(C)CC(C)(C)C.[Cl-]` [Methylbenzethonium chloride] showed a Control-MCC [1, 6] of 76.0988, a VN-MCC_Avg_AUC [2, 7] of 436.818 and a Control-VN-MCC [2, 8] of -21.8625. It also gave an MKL1_AUC (MKL-1 cells (VP-MCC); [9]) of 312.601, an MCC_Avg_AUC [3, 10] of 338.857 and a CRL7250_AUC (CRL-7250 cells; [11]) of 444.568. For the same molecule, the MCC26_AUC (MCC26 cells (VN-MCC); [12]) was 455.487, the HACAT_AUC (HACAT cells; [13]) was 428.465 and the UISO_AUC (UISO cells (VN-MCC); [14]) was 375.218. It also gave a VP-MCC_Avg_AUC [4, 15] of 240.895, a Control-VP-MCC [4, 16] of 174.06 and an HEK293T_AUC (HEK293T cells; [17]) of 317.092. For the same molecule, the Control_Avg_AUC [5, 18] was 414.956, the NIH3T3_AUC (NIH-3T3 cells; [19]) was 469.697 and the MKL2_AUC (MKL-2 cells (VP-MCC); [20]) was 209.354. The MCC13_AUC (MCC13 cells (VN-MCC); [21]) was 479.749 and the WAGA_AUC (WAGA cells (VP-MCC); [22]) was 200.731.

With `CCOC(=O)[C@@](C)(N)Cc1ccc(O)c(O)c1` [Methyldopate hydrochloride] the Control-MCC [1, 6] was 30.264, the VN-MCC_Avg_AUC [2, 7] was 434.044 and the Control-VN-MCC [2, 8] was 7.843. The MKL1_AUC (MKL-1 cells (VP-MCC); [9]) was 366.496, the MCC_Avg_AUC [3, 10] was 411.623 and the CRL7250_AUC (CRL-7250 cells; [11]) was 412.089. For the same molecule, the MCC26_AUC (MCC26 cells (VN-MCC); [12]) was 437.99, the HACAT_AUC (HACAT cells; [13]) was 480.325 and the UISO_AUC (UISO cells (VN-MCC); [14]) was 416.553. The VP-MCC_Avg_AUC [4, 15] was 389.202, the Control-VP-MCC [4, 16] was 52.6846 and the HEK293T_AUC (HEK293T cells; [17]) was 443.954. It also gave a Control_Avg_AUC [5, 18] of 441.887, an NIH3T3_AUC (NIH-3T3 cells; [19]) of 431.18 and an MKL2_AUC (MKL-2 cells (VP-MCC); [20]) of 398.602. The MCC13_AUC (MCC13 cells (VN-MCC); [21]) was 447.588 and the WAGA_AUC (WAGA cells (VP-MCC); [22]) was 402.509.

`CC#C[C@]1(O)CC[C@H]2[C@@H]3CCC4=CC(=O)CCC4=C3[C@@H](c3ccc(N(C)C)cc3)C[C@@]21C` [Mifepristone] was tested, and the Control-MCC ([1]; MIPE library, Control AUC minus MCC AUC (therapeutic window), sheet S2E) was 97.3285, the Control-VN-MCC ([2]; MIPE library, Control AUC minus VN-MCC AUC (therapeutic window), sheet S2E) was 23.0495 and the VN-MCC_Avg_AUC ([2]; MIPE library, mean AUC of VN-MCC cell lines, sheet S2E) was 425.738. For the same molecule, the MKL1_AUC (MKL-1 cells (VP-MCC); [23]) was 274.173, the “Area under the dose-response curve (AUC) MKL-1 Replicate 1” value (MKL-1 cells (VP-MCC); follow-up screen, MKL-1, replicate 1) was 491.0 and the “Area under the dose-response curve (AUC) MKL-1 Replicate 2” value (MKL-1 cells (VP-MCC); follow-up screen, MKL-1, replicate 2) was 482.0. The “Area under the dose-response curve (AUC) MKL-1 Replicate 3” value (MKL-1 cells (VP-MCC); follow-up screen, MKL-1, replicate 3) was 520.5, the MCC_Avg_AUC ([3]; MIPE library, mean AUC of six MCC cell lines, sheet S2E) was 351.459 and the CRL7250_AUC (CRL-7250 cells; [24]) was 445.154. The MCC26_AUC (MCC26 cells (VN-MCC); [23]) was 459.158, the “Area under the dose-response curve (AUC) MCC26 Replicate 1” value (MCC26 cells (VN-MCC); follow-up screen, MCC26, replicate 1) was 467.8 and the “Area under the dose-response curve (AUC) MCC26 Replicate 2” value (MCC26 cells (VN-MCC); follow-up screen, MCC26, replicate 2) was 425.4. The “Area under the dose-response curve (AUC) MCC26 Replicate 3” value (MCC26 cells (VN-MCC); follow-up screen, MCC26, replicate 3) was 483.6, the HACAT_AUC (HACAT cells; [24]) was 471.301 and the UISO_AUC (UISO cells (VN-MCC); [23]) was 367.837. The “Area under the dose-response curve (AUC) UISO Replicate 1” value (UISO cells (VN-MCC); follow-up screen, UISO, replicate 1) was 472.5, the “Area under the dose-response curve (AUC) UISO Replicate 2” value (UISO cells (VN-MCC); follow-up screen, UISO, replicate 2) was 481.5 and the “Area under the dose-response curve (AUC) UISO Replicate 3” value (UISO cells (VN-MCC); follow-up screen, UISO, replicate 3) was 472.0. For the same molecule, the Control-VP-MCC ([4]; MIPE library, Control AUC minus VP-MCC AUC (therapeutic window), sheet S2E) was 171.607, the VP-MCC_Avg_AUC ([4]; MIPE library, mean AUC of VP-MCC cell lines, sheet S2E) was 277.18 and the HEK293T_AUC (HEK293T cells; [24]) was 403.35. For the same molecule, the Control_Avg_AUC ([5]; MIPE library, mean AUC of control cell lines, sheet S2E) was 448.787, the NIH3T3_AUC (NIH-3T3 cells; [24]) was 475.344 and the MKL2_AUC (MKL-2 cells (VP-MCC); [23]) was 266.162. For the same molecule, the “Area under the dose-response curve (AUC) MKL-2 Replicate 1” value (MKL-2 cells (VP-MCC); follow-up screen, MKL-2, replicate 1) was 494.5, the “Area under the dose-response curve (AUC) MKL-2 Replicate 2” value (MKL-2 cells (VP-MCC); follow-up screen, MKL-2, replicate 2) was 503.2 and the “Area under the dose-response curve (AUC) MKL-2 Replicate 3” value (MKL-2 cells (VP-MCC); follow-up screen, MKL-2, replicate 3) was 499.4. For the same molecule, the MCC13_AUC (MCC13 cells (VN-MCC); [23]) was 450.219, the “Area under the dose-response curve (AUC) MCC13 Replicate 1” value (MCC13 cells (VN-MCC); follow-up screen, MCC13, replicate 1) was 516.1 and the “Area under the dose-response curve (AUC) MCC13 Replicate 2” value (MCC13 cells (VN-MCC); follow-up screen, MCC13, replicate 2) was 505.4. For the same molecule, the “Area under the dose-response curve (AUC) MCC13 Replicate 3” value (MCC13 cells (VN-MCC); follow-up screen, MCC13, replicate 3) was 486.2, the WAGA_AUC (WAGA cells (VP-MCC); [23]) was 291.204 and the “Area under the dose-response curve (AUC) WAGA Replicate 1” value (WAGA cells (VP-MCC); follow-up screen, WAGA, replicate 1) was 532.2. For the same molecule, the “Area under the dose-response curve (AUC) WAGA Replicate 2” value (WAGA cells (VP-MCC); follow-up screen, WAGA, replicate 2) was 542.6 and the “Area under the dose-response curve (AUC) WAGA Replicate 3” value (WAGA cells (VP-MCC); follow-up screen, WAGA, replicate 3) was 501.4.

From article PMC11822212, “High-throughput screening identifies Aurora kinase B as a critical therapeutic target for Merkel cell carcinoma” (Nature Communications, 2025)
